Data set [1] in a line: Stability analysis: mobility of initiator compound from cured print into analog solutions, by HPLC. The conditions noted are these: 40° C. for 10 days, calculated for 1 kg of food per 600 cm^2 printing area. The format is physicochemical.
Procedure: The cardboard is cut to a size of 10×10 cm, is completely immersed in two analog solutions, i. e., 100 ml distilled water and 3% acetic acid aqueous solution, sealing is performed well, and placement is performed at 40° C. for 10 days. The printed matter is taken out, and after standing, the contents of the initiator compounds in the analog solutions are directly analyzed by means of HPLC.
Data set [2] can be described thus: Solubility of solid photoinitiator in liquid polymerized monomer (HDDA or TPGDA). The following applies: dissolved at 50-60° C., stored at room temperature.

The structures appear in SMILES notation.

Mobility and Solubility data for two compounds are collected here from patent US11560362B2, “Dibutylfluorene derivative and application thereof as photoinitiator” (HUI ZHOU HUAHONG NEW MATERIAL CO., LTD., priority 2017, dated 2023).

Regarding `CCCCC1(CCCC)c2ccccc2-c2ccc(C(=O)C(C)(C)N3CCOCC3)cc21` [2-methyl-1-(2-(9,9-dibutylfluorenyl))-2-(N-morpholinyl)-1-acetone], the figures for the Mobility in data set [1] (3% acetic acid) and in data set [1] (Water) were 60 µg/kg and 50 µg/kg, respectively.
Turning to `CC(C)(C(=O)c1ccc(-c2ccccc2)cc1)N1CCOCC1` [2-methyl-1-(4-biphenyl)-2-morpholinyl-1-acetone], the Mobility in data set [1] (3% acetic acid) is 98 µg/kg; in data set [1] (Water), 80 µg/kg. In addition, the Solubility in data set [2] (Polymerized monomer 1: HDDA) is given as 20 % (mass fraction); in data set [2] (Polymerized monomer 2: TPGDA), 15 % (mass fraction).
